Data: US7989482B2, “Indoline anti-cancer agents” (Joyant Pharmaceuticals, Inc., priority 2008, dated 2011)
Like-named read-outs stand apart in the source and are kept apart here.

Assays:
A2058 cells = assay: Cell viability assay (CELL-TITER-GLO) in A2058 cells; assay type: cell-based; conditions: Homo sapiens, A2058 cells, 48 hour treatment, cell viability, read-out: IC50 (μM) A2058
Procedure: (§1) Cell viability assays were run using standard protocols known to those of skill in art. Cells were plated in 96 well plates at the density of 3,000-10,000 cells per well. Twenty four hours later, cells were treated with increasing concentration of test compounds (1 nM to 1 μM). After another 48 hour, cell survival was measured using CELL-TITER-GLO® reagent (Promega) following the protocol provided by the manufacture. The IC50 value was determined as the concentration of test compound that kills 50% of the cell population.
(§2) Cell viability data generated according to the protocol described in Example 97 was generated for representative compounds in A2058 and U937 cells.

U937 cells = assay: Cell viability assay (CELL-TITER-GLO) in U937 cells; assay type: cell-based; conditions: Homo sapiens, U937 cells, 48 hour treatment, cell viability, read-out: IC50 (μM) U937
Procedure: as §1, §2

CC(C)[C@H](O)C(=O)N[C@H]1Cc2ccc3c(c2)[C@]24C5=C(N=C(O5)[C@H](C(C)C)NC1=O)c1ncc(o1)-c1c[nH]c5cccc(c15)-c1cccc2c1NC4O3 (stereo partly drawn) [Cpd J, reference compound]
IC50 (A2058 cells; A2058, 48 h): 0.039 µM
IC50 (U937 cells; U-937, 48 h): 0.026 µM

COC(=O)c1nc2oc1[C@@]13c4ccccc4NC1Oc1ccc(cc13)CC(N)C(=O)N[C@H]2C(C)C (stereo partly drawn) [Example 3]
IC50 (A2058 cells; A2058, 48 h): > 1 µM
IC50 (U937 cells; U-937, 48 h): > 1 µM

COC(=O)c1nc2oc1[C@@]13c4ccccc4NC1Oc1ccc(cc13)CC(NC(=O)OCc1ccccc1)C(=O)N[C@H]2C(C)C (stereo partly drawn) [Example 4]
IC50 (A2058 cells): > 1 µM
IC50 (U937 cells; U-937): > 1 µM

COC(=O)c1nc2oc1[C@@]13c4ccccc4NC1Oc1ccc(cc13)C[C@H](NC(=O)[C@@H](O)C(C)C)C(=O)N[C@H]2C(C)C (stereo partly drawn) [Example 6]
IC50 (A2058 cells; A2058, 48 h): > 1 µM
IC50 (U937 cells; U-937, 48 h): > 1 µM

COC(=O)c1nc2oc1[C@@]13c4ccccc4NC1Oc1ccc(cc13)C[C@H](NC(=O)[C@@H](O)c1ccccc1)C(=O)N[C@H]2C(C)C (stereo partly drawn) [Example 7]
IC50 (A2058 cells; A2058, 48 h): > 1 µM
IC50 (U937 cells; U-937, 48 h): > 1 µM

[H][C@]1(C(=O)N[C@H]2Cc3ccc4c(c3)C3(C5=C(C(=O)OC)N=C(O5)[C@H](C(C)C)NC2=O)c2ccccc2N[C@H]3O4)CCCO1 (stereo partly drawn) [Example 8]
IC50 (A2058 cells; A2058, 48 h): > 1 µM
IC50 (U937 cells; U-937, 48 h): > 1 µM

COC(=O)c1nc2oc1C13c4ccccc4N[C@H]1Oc1ccc(cc13)C[C@H](NC(=O)[C@@H](O)CC(C)C)C(=O)N[C@H]2C(C)C (stereo partly drawn) [Example 9]
IC50 (A2058 cells; A2058, 48 h): > 1 µM
IC50 (U937 cells; U-937, 48 h): > 1 µM

COC(=O)c1nc2oc1C13c4ccccc4N[C@H]1Oc1ccc(cc13)C[C@H](NC(=O)c1cc(OC)c(OC)c(OC)c1)C(=O)N[C@H]2C(C)C (stereo partly drawn) [Example 10]
IC50 (A2058 cells; A2058, 48 h): > 1 µM
IC50 (U937 cells; U-937, 48 h): > 1 µM

CC(C)[C@H](O)C(=O)N[C@H]1Cc2ccc3c(c2)[C@]2(C4=C(C(=O)NCCc5c[nH]c6ccccc56)N=C(O4)[C@H](C(C)C)NC1=O)c1ccccc1NC2O3 (stereo partly drawn) [Example 11]
IC50 (A2058 cells; A2058, 48 h): > 1 µM
IC50 (U937 cells; U-937, 48 h): > 1 µM

CC(C)[C@H](O)C(=O)N[C@H]1Cc2ccc3c(c2)[C@]2(C4=C(C(=O)O)N=C(O4)[C@H](C(C)C)NC1=O)c1ccccc1NC2O3 (stereo partly drawn) [Example 12]
IC50 (A2058 cells): > 1 µM
IC50 (U937 cells; U-937): > 1 µM

COC(=O)[C@@H]1CCCN1C(=O)c1nc2oc1C13c4ccccc4N[C@H]1Oc1ccc(cc13)C[C@H](NC(=O)[C@@H](O)C(C)C)C(=O)N[C@H]2C(C)C (stereo partly drawn) [Example 13]
IC50 (A2058 cells; A2058, 48 h): > 1 µM
IC50 (U937 cells; U-937, 48 h): > 1 µM

CC(C)[C@H](O)C(=O)N[C@H]1Cc2ccc3c(c2)C2(C4=C(C(=O)N5CCCC5)N=C(O4)[C@H](C(C)C)NC1=O)c1ccccc1N[C@H]2O3 (stereo partly drawn) [Example 14]
IC50 (A2058 cells; A2058, 48 h): > 1 µM
IC50 (U937 cells; U-937, 48 h): > 1 µM

CC(C)[C@H](O)C(=O)N[C@H]1Cc2ccc3c(c2)C2(C4=C(C(=O)NCc5ccccc5)N=C(O4)[C@H](C(C)C)NC1=O)c1ccccc1N[C@H]2O3 (stereo partly drawn) [Example 15]
IC50 (A2058 cells): > 1 µM
IC50 (U937 cells; U-937): > 1 µM

CC(C)[C@H](O)C(=O)N[C@H]1Cc2ccc3c(c2)C2(C4=C(C(=O)NCC5CCCCC5)N=C(O4)[C@H](C(C)C)NC1=O)c1ccccc1N[C@H]2O3 (stereo partly drawn) [Example 16]
IC50 (A2058 cells; A2058, 48 h): > 1 µM
IC50 (U937 cells; U-937, 48 h): > 1 µM

CC(C)[C@H](O)C(=O)N[C@H]1Cc2ccc3c(c2)C2(C4=C(C(=O)N[C@@H]5CCCc6ccccc65)N=C(O4)[C@H](C(C)C)NC1=O)c1ccccc1N[C@H]2O3 (stereo partly drawn) [Example 17]
IC50 (A2058 cells; A2058, 48 h): > 1 µM
IC50 (U937 cells; U-937, 48 h): > 1 µM

CC(C)[C@H](O)C(=O)N[C@H]1Cc2ccc3c(c2)C2(C4=C(C(=O)NCC(c5ccccc5)c5ccccc5)N=C(O4)[C@H](C(C)C)NC1=O)c1ccccc1N[C@H]2O3 (stereo partly drawn) [Example 18]
IC50 (A2058 cells; A2058, 48 h): > 1 µM
IC50 (U937 cells; U-937, 48 h): > 1 µM

CC(C)[C@H](O)C(=O)N[C@H]1Cc2ccc3c(c2)C2(C4=C(C(=O)NC(c5ccccc5)c5ccccc5)N=C(O4)[C@H](C(C)C)NC1=O)c1ccccc1N[C@H]2O3 (stereo partly drawn) [Example 19]
IC50 (A2058 cells): > 1 µM
IC50 (U937 cells; U-937): > 1 µM

CC(C)[C@H](O)C(=O)N[C@H]1Cc2ccc3c(c2)C2(C4=C(C(=O)NCc5ccc(F)cc5)N=C(O4)[C@H](C(C)C)NC1=O)c1ccccc1N[C@H]2O3 (stereo partly drawn) [Example 20]
IC50 (A2058 cells; A2058, 48 h): > 1 µM
IC50 (U937 cells; U-937, 48 h): > 1 µM

CC(C)[C@H](O)C(=O)N[C@H]1Cc2ccc3c(c2)C2(C4=C(C(=O)N5CCCC5c5ccccc5)N=C(O4)[C@H](C(C)C)NC1=O)c1ccccc1N[C@H]2O3 (stereo partly drawn) [Example 21]
IC50 (A2058 cells; A2058, 48 h): > 1 µM
IC50 (U937 cells; U-937, 48 h): > 1 µM

CC(C)[C@H](O)C(=O)N[C@H]1Cc2ccc3c(c2)C2(C4=C(C(=O)NC5CCCCC5)N=C(O4)[C@H](C(C)C)NC1=O)c1ccccc1N[C@H]2O3 (stereo partly drawn) [Example 22]
IC50 (A2058 cells; A2058, 48 h): > 1 µM
IC50 (U937 cells; U-937, 48 h): > 1 µM

CNC(=O)c1nc2oc1C13c4ccccc4N[C@H]1Oc1ccc(cc13)C[C@H](NC(=O)[C@@H](O)C(C)C)C(=O)N[C@H]2C(C)C (stereo partly drawn) [Example 23]
IC50 (A2058 cells; A2058, 48 h): > 1 µM
IC50 (U937 cells; U-937, 48 h): > 1 µM

CC(C)[C@H](O)C(=O)N[C@H]1Cc2ccc3c(c2)C2(C4=C(C(=O)NC(C)(C)C)N=C(O4)[C@H](C(C)C)NC1=O)c1ccccc1N[C@H]2O3 (stereo partly drawn) [Example 24]
IC50 (A2058 cells; A2058, 48 h): > 1 µM
IC50 (U937 cells; U-937, 48 h): > 1 µM

CCN(CC)C(=O)c1nc2oc1C13c4ccccc4N[C@H]1Oc1ccc(cc13)C[C@H](NC(=O)[C@@H](O)C(C)C)C(=O)N[C@H]2C(C)C (stereo partly drawn) [Example 25]
IC50 (A2058 cells; A2058, 48 h): > 1 µM
IC50 (U937 cells; U-937, 48 h): > 1 µM

CC(C)[C@H](O)C(=O)N[C@H]1Cc2ccc3c(c2)C2(C4=C(C(=O)N5CCc6ccccc65)N=C(O4)[C@H](C(C)C)NC1=O)c1ccccc1N[C@H]2O3 (stereo partly drawn) [Example 26]
IC50 (A2058 cells; A2058, 48 h): > 1 µM
IC50 (U937 cells; U-937, 48 h): > 1 µM

CC(C)[C@H](O)C(=O)N[C@H]1Cc2ccc3c(c2)C2(C4=C(C(=O)N5CCN=C5c5ccccc5)N=C(O4)[C@H](C(C)C)NC1=O)c1ccccc1N[C@H]2O3 (stereo partly drawn) [Example 27]
IC50 (A2058 cells; A2058, 48 h): > 1 µM
IC50 (U937 cells; U-937, 48 h): > 1 µM

CC(C)[C@H](O)C(=O)N[C@H]1Cc2ccc3c(c2)C2(C4=C(C(=O)NC5CCc6ccccc65)N=C(O4)[C@H](C(C)C)NC1=O)c1ccccc1N[C@H]2O3 (stereo partly drawn) [Example 28]
IC50 (A2058 cells; A2058, 48 h): > 1 µM
IC50 (U937 cells; U-937, 48 h): > 1 µM

CC(C)[C@H](O)C(=O)N[C@H]1Cc2ccc3c(c2)C2(C4=C(C(=O)NCCO)N=C(O4)[C@H](C(C)C)NC1=O)c1ccccc1N[C@H]2O3 (stereo partly drawn) [Example 29]
IC50 (A2058 cells; A2058, 48 h): > 1 µM
IC50 (U937 cells; U-937, 48 h): > 1 µM

COC(=O)[C@H](CO)NC(=O)c1nc2oc1C13c4ccccc4N[C@H]1Oc1ccc(cc13)C[C@H](NC(=O)[C@@H](O)C(C)C)C(=O)N[C@H]2C(C)C (stereo partly drawn) [Example 30]
IC50 (A2058 cells; A2058, 48 h): > 1 µM
IC50 (U937 cells; U-937, 48 h): > 1 µM

CC(C)[C@H](O)C(=O)N[C@H]1Cc2ccc3c(c2)[C@]2(C4=C(C(N)=O)N=C(O4)[C@H](C(C)C)NC1=O)c1ccccc1NC2O3 (stereo partly drawn) [Example 31]
IC50 (A2058 cells; A2058, 48 h): > 1 µM
IC50 (U937 cells; U-937, 48 h): > 1 µM

CC(C)[C@H](O)C(=O)N[C@H]1Cc2ccc3c(c2)C2(C4=C(C(=O)NCC(=O)c5c[nH]c6c(O)cccc56)N=C(O4)[C@H](C(C)C)NC1=O)c1ccccc1N[C@H]2O3 (stereo partly drawn) [Example 32]
IC50 (A2058 cells; A2058, 48 h): > 1 µM
IC50 (U937 cells; U-937, 48 h): > 1 µM

CC(C)[C@H](O)C(=O)N[C@H]1Cc2ccc3c(c2)C2(C4=C(C(=O)NCC(=O)c5c[nH]c6c(O)cccc56)N=C(O4)[C@H](C(C)C)NC1=O)c1cccc(Br)c1N[C@H]2O3 (stereo partly drawn) [Example 33]
IC50 (A2058 cells; A2058, 48 h): > 1 µM
IC50 (U937 cells; U-937, 48 h): > 1 µM

CC(C)[C@H](O)C(=O)N[C@H]1Cc2ccc3c(c2)C2(C4=C(C(=O)NCC(=O)c5c[nH]c6ccccc56)N=C(O4)[C@H](C(C)C)NC1=O)c1ccccc1N[C@H]2O3 (stereo partly drawn) [Example 34]
IC50 (A2058 cells; A2058, 48 h): > 1 µM
IC50 (U937 cells; U-937, 48 h): > 1 µM

COC(=O)c1nc2oc1C13c4ccccc4N[C@H]1Oc1ccc(cc13)C[C@H](NC(=O)[C@@H]1CCCN1)C(=O)NC2C(C)C (stereo partly drawn) [Example 35]
IC50 (A2058 cells; A2058, 48 h): > 1 µM
IC50 (U937 cells; U-937, 48 h): > 1 µM
